Reference: patent publication US11014917B2, “5-fluoro-c-(aryl or heterocyclyl)-glycoside derivatives useful as dual SGLT1 / SGLT2 modulators” (Janssen Pharmaceutica NV, priority 2017, dated 2021)
pIC50: −log10 of the molar value.

Key:
[1] = target: T1, human SGLT2 (Homo sapiens, UniProt P31639); test: SGLT2 assay: Na-dependent 14C-AMG uptake in CHO-K1 cells stably expressing human SGLT2; type: cell-based; settings: for pIC50: average if tested more than once
T1 construct: expressed in transfected cells
T1 sequence (P31639 1-672): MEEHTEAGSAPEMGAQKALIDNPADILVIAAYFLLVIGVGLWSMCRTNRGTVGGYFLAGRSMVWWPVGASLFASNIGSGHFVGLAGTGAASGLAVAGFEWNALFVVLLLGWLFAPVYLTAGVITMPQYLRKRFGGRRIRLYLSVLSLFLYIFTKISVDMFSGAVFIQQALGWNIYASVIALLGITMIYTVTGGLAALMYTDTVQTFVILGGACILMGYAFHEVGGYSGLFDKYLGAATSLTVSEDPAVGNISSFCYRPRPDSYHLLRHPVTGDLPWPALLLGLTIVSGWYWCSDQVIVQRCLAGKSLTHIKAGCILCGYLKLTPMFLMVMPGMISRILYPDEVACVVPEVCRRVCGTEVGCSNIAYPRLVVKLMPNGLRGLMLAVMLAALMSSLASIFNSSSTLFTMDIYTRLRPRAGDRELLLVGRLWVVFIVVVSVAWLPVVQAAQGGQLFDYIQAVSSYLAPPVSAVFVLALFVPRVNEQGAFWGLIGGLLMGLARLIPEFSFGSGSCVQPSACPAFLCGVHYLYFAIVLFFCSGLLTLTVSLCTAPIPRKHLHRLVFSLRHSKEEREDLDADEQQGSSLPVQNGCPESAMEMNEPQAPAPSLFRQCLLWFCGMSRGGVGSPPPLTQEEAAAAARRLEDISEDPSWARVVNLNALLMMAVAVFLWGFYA
Procedure, shortened: (§1)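 Stable CHO-K1 lines were pretreated 24 h with 10 mM Na-butyrate, then compound (0.001–10 μM) for 10 min in Na+ buffer (137 mM NaCl, pH 7.4). Uptake of 14C-AMG (500 μM final, 0.07 μCi/well) over 2 h at 37° C measured by scintillation; %-inhibition or IC50.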

[2] = target: T2, human SGLT1 (Homo sapiens, UniProt P13866); test: SGLT1 assay: Na-dependent 14C-AMG uptake in CHO-K1 cells stably expressing human SGLT1; type: cell-based; settings: for SGLT1 %-inhibition / inhibition at 0.3 µM: @ 0.3 μM; for pIC50: average if tested more than once
T2 construct: expressed in transfected cells
T2 sequence (P13866 1-664): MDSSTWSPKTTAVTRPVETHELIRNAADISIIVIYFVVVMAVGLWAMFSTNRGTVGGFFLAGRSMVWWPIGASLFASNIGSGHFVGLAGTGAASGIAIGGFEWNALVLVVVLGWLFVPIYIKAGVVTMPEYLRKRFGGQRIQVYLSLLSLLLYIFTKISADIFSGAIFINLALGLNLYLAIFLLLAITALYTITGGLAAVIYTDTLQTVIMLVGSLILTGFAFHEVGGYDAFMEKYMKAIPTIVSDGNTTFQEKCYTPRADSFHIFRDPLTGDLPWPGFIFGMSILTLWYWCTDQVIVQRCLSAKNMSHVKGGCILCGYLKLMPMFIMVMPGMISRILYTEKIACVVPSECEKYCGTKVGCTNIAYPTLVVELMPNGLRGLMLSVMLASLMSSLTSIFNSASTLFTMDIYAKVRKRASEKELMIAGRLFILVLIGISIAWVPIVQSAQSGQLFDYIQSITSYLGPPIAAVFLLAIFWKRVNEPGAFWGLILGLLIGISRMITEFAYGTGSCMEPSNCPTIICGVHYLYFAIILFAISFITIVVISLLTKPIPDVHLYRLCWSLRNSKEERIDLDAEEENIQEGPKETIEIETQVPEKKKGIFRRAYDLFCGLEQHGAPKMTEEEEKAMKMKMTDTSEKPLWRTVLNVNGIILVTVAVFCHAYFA
Procedure, shortened: as §1

| SMILES | SGLT2 %-inhibition ([1]; @ 0.3 μM) | SGLT1 %-inhibition [2] | pIC50 [1] | pIC50 [2] | other results |
| --- | --- | --- | --- | --- | --- |
| Cc1ccc([C@@H]2O[C@H](CO)[C@@H](F)[C@H](O)[C@H]2O)cc1Cc1cc2c(s1)CCN(C(=O)N1CCCC1)C2 [Compound 78] | 86.9% @ 0.3 μM | 28.4% @ 0.3 μM |  |  |  |
| Cc1cc(O)c([C@@H]2O[C@H](CF)[C@@H](F)[C@H](O)[C@H]2O)cc1Cc1cc2ccccc2s1 [Compound 20, (2S,3R,4R,5S,6R)-2-(5-(benzo[b]thiophen-2-ylmethyl)-2-hydroxy-4-methylphenyl)-5-fluoro-6-(fluoromethyl)-tetrahydro-2H-pyran-3,4-diol] |  |  | 6.40 | 6.94 |  |
| Cc1cc(O)c([C@@H]2O[C@H](C(C)(C)O)[C@@H](F)[C@H](O)[C@H]2O)cc1Cc1cc2ccccc2s1 [Compound 39] |  |  | 6.91 | 6.42 |  |
| COc1cc(O)c(C2OC(C(C)O)C(F)C(O)C2O)cc1Cc1cc2ccccc2s1 (single isomer, unassigned) [Compound 53] |  |  | 7.59 | 6.98 |  |
| COc1cc(OCC#N)c([C@@H]2O[C@H](C(C)O)[C@@H](F)[C@H](O)[C@H]2O)cc1Cc1cc2ccccc2s1 (single isomer, unassigned) [Compound 71] | 30.0% @ 0.3 μM | 76.4% @ 0.3 μM |  |  |  |
| COc1cc(C)c(Cc2cc3c(s2)CCN(C(=O)N2CCOCC2)C3)cc1[C@@H]1O[C@H](CO)[C@@H](F)[C@H](O)[C@H]1O [Compound 69] | 60.3% @ 0.3 μM | 20.4% @ 0.3 μM |  |  |  |
| Cc1cc(O)c([C@@H]2O[C@H](CO)[C@@H](F)[C@H](O)[C@H]2O)cc1Cc1cc2ccccc2s1 [Compound 4] |  |  | 8.40 | 7.85 |  |
| OCC1COc2c(Cc3ccc4c(c3)OCCO4)cc([C@@H]3O[C@H](CO)[C@@H](F)[C@H](O)[C@H]3O)cc21 (stereo partly drawn) [Compound 75, (2S,3R,4R,5S,6R)-2-(7-((2,3-dihydrobenzo[b][1,4]dioxin-6-yl)methyl)-3-(hydroxymethyl)-2,3-dihydrobenzofuran-5-yl)-5-fluoro-6-(hydroxymethyl)-tetrahydro-2H-pyran-3,4-diol] |  |  |  |  | inhibition at 0.3 µM ([1]; @ 0.3 μM): 43.7%; inhibition at 0.3 µM [2]: 61.9% |
| Cc1cc(O)c([C@@H]2O[C@H](CN)[C@@H](F)[C@H](O)[C@H]2O)cc1Cc1cc2ccccc2s1 [Compound 24] |  |  | 6.48 | 6.01 |  |
| COc1c(Cc2cc3ccccc3s2)cc([C@@H]2O[C@H](CO)[C@@H](F)[C@H](O)[C@H]2O)c(OC)c1C [Compound 15] |  |  | 7.17 | 7.00 |  |
| COc1cc(Cl)c([C@@H]2O[C@H](CO)[C@@H](F)[C@H](O)[C@H]2O)cc1Cc1cc2ccccc2s1 [Compound 21] |  |  | 6.95 | 6.50 |  |
| Cc1cc(O)c([C@@H]2O[C@H](CC#N)[C@@H](F)[C@H](O)[C@H]2O)cc1Cc1cc2ccccc2s1 [Compound 23] |  |  | 7.16 |  | inhibition at 0.3 µM [2]: 65.2% |

Now from value to compound, other results behind:

| SGLT2 %-inhibition ([1]; @ 0.3 μM) | SGLT1 %-inhibition [2] | pIC50 [1] | pIC50 [2] | SMILES | other results |
| --- | --- | --- | --- | --- | --- |
|  |  | 7.82 | 7.22 | [2H]C1([2H])Oc2ccc(Cc3cc([C@@H]4O[C@H](CO)[C@@H](F)[C@H](O)[C@H]4O)c4c(c3CC)CCO4)cc2OC1([2H])[2H] [Compound 179] |  |
|  |  | 8.40 | 6.89 | COc1c([C@@H]2O[C@H](CO)[C@@H](F)[C@H](O)[C@H]2O)cc(Cc2ccc3c(c2)NCCC3)c2c1CCO2 [Compound 105, (2S,3R,4R,5S,6R)-5-fluoro-6-(hydroxymethyl)-2-(4-methoxy-7-((1,2,3,4-tetrahydroquinolin-7-yl)methyl)-2,3-dihydrobenzofuran-5-yl)-tetrahydro-2H-pyran-3,4-diol] |  |
| 0.0% @ 0.3 μM | 6.0% @ 0.3 μM |  |  | CCc1ccc([C@@H]2O[C@H](CO)[C@@H](F)[C@H](O)[C@H]2O)cc1Cc1ccc2c(c1)OC(F)(F)O2 [Compound 159] |  |
|  |  | 8.70 | 7.30 | CCc1cc(O)c([C@@H]2O[C@H](CO)[C@@H](F)[C@H](O)[C@H]2O)cc1Cc1cc2c(s1)CCN(C#N)C2 [Compound 118] |  |
| 53.9% @ 0.3 μM | 21.0% @ 0.3 μM |  |  | Cc1cnc(N2CCc3sc(Cc4cc([C@@H]5O[C@H](CO)[C@@H](F)[C@H](O)[C@H]5O)ccc4C)cc3C2)s1 [Compound 113] |  |
|  |  | 8.10 | 6.79 | COc1c([C@@H]2O[C@H](CO)[C@@H](F)[C@H](O)[C@H]2O)cc(Cc2ccc3c(c2)SCCO3)c2c1CCO2 [Compound 107, (2S,3R,4R,5S,6R)-2-(7-((2,3-dihydrobenzo[b][1,4]oxathiin-6-yl)methyl)-4-methoxy-2,3-dihydrobenzofuran-5-yl)-5-fluoro-6-(hydroxymethyl)-tetrahydro-2H-pyran-3,4-diol] |  |
| 60.4% @ 0.3 μM | 37.4% @ 0.3 μM |  |  | COC(=O)N1CCc2sc(Cc3cc([C@@H]4O[C@H](CO)[C@@H](F)[C@H](O)[C@H]4O)ccc3Cl)cc2C1 [Compound 80] |  |
| 78.4% @ 0.3 μM | 63.2% @ 0.3 μM |  |  | OC[C@H]1O[C@@H](c2cc(Cc3ccc4c(c3)SCCO4)c(Cl)c3c2OCC3)[C@H](O)[C@@H](O)[C@@H]1F [Compound 127] |  |
|  |  | 7.12 | 6.49 | COc1c([C@@H]2O[C@H](CO)[C@@H](F)[C@H](O)[C@H]2O)cc(Cc2ccc3c(c2)N(C)CCC3)c2c1CCO2 [Compound 108, (2S,3R,4R,5S,6R)-5-fluoro-6-(hydroxymethyl)-2-(4-methoxy-7-((1-methyl-1,2,3,4-tetrahydroquinolin-7-yl)methyl)-2,3-dihydrobenzofuran-5-yl)-tetrahydro-2H-pyran-3,4-diol] |  |
| 81.6% @ 0.3 μM | 44.8% @ 0.3 μM |  |  | Cc1c(Cc2ccc3c(c2)CCCO3)cc([C@@H]2O[C@H](CO)[C@@H](F)[C@H](O)[C@H]2O)c2c1CCO2 [Compound 130] |  |
| 58.9% @ 0.3 μM | 42.2% @ 0.3 μM |  |  | COc1cc(OC)c([C@@H]2O[C@H](CO)[C@@H](F)[C@H](O)[C@H]2O)cc1Cc1cc2c(s1)CCN(C(C)=O)C2 [Compound 82] |  |
|  |  | 7.00 | 7.38 | OC[C@H]1O[C@@H](c2cc3c(c(Cc4ccc5c(c4)NCCC5)c2)OCC3)[C@H](O)[C@@H](O)[C@@H]1F [Compound 89] |  |
